Results on 16 compounds are retold here after paper PMC8637440, “Structural Modifications Yield Novel Insights Into the Intriguing Pharmacodynamic Potential of Anti-inflammatory Nitro-Fatty Acids” (Frontiers in Pharmacology, 2021).

The test system of data set [1] is HCT-116 cells. Put plainly: WST-1 cell viability assay, HCT-116. The format is cell-based, human. As to conditions: for IC50: Homo sapiens, HCT-116; for cytotoxic potency higher compared to 9NOA: HCT-116 and HT-29 cells. How it is done: Cell viability was analyzed with the WST-1 assay based on the cleavage of the stable tetrazolium salt WST-1 by the mitochondrial reductase system. Cells were seeded in the appropriate densities in a clear 96-well plate and settled overnight at 37°C in 5% CO2. The next day, the cells were treated with NFA or the substances of interest (≤0.1% dimethyl sulfoxide [DMSO]) and incubated for 24 or 48 h at 37°C in 5% CO2. Cell viability was analyzed by adding 10 µl WST-1 solution (Roche, Basel, Switzerland) and subsequently incubating the cells at 37°C for another 30–40 min. Absorbance was measured at 450 nm with a control wavelength at 620 nm using a plate reader.
Besides targeting the NF-κB pathway, the anti-tumorigenic effects of NFA can be observed by a reduction of colorectal cancer cell viability. […] Again, the cytotoxic effects of NFA were determined in HCT-116 and HT-29 colorectal cancer cells in the present study. […] HCT-116 cells were treated with increasing concentrations of NFA differing in chain length and Michael acceptor position for 24 h, and cell viability was determined using the WST-1 assay. Due to their prolonged cell division rate and their lack of sensitivity towards NFA ([Kühn et al., 2018]), HT-29 cells were treated for 48 h to gain improved NFA activity.

Data set [2] concerns the target T1, r5LO-wt (Homo sapiens, UniProt P09917).
T1 sequence (P09917 1-674): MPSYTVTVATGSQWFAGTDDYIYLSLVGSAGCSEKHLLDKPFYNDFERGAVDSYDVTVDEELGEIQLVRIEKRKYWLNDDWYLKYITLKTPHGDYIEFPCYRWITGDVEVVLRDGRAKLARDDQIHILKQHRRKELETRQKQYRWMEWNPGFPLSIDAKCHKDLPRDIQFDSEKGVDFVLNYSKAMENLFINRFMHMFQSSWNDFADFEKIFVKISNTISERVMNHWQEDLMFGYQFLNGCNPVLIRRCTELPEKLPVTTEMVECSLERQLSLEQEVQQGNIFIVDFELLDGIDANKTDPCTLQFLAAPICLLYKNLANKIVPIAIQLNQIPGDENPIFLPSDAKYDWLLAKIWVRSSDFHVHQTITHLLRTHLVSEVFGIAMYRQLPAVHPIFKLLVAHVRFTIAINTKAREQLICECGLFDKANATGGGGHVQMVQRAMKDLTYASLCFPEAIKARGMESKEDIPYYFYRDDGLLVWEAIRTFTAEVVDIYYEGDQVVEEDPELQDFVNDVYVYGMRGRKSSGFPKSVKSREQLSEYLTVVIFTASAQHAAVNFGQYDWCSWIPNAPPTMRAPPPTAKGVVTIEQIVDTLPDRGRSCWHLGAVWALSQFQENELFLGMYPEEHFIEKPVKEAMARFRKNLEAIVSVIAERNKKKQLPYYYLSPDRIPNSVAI
As to the kind of experiment: Recombinant 5-LO activity assay (5-HETE). The format is biochemical. On the procedure:
5-LO activity in intact cells was assayed by measuring LTB4 (leukotriene B4) and 5-HETE (5-hydroxyeicosatetraenoic acid) levels in the PMNL supernatants. Since PMNL preparations (purity >95%) contain eosinophils expressing 15-LO-1 as well as platelets, we also analyzed the effects of NFA on the concomitant formation of […] and 12-(S)-HETE. […] Recombinant 5-LO enzyme activity was assessed by the determination of 5-HETE levels representing a direct product assay. In the cell-based LO activity assays, 5 × 10^6 cells per ml PBS/glucose were transferred to 5 ml glass tubes containing 1 mM CaCl2 and stored on ice. […] Subsequently, the cells were stimulated with calcium ionophore A23187 (2.5 µM) and arachidonic acid (AA, 20 µM) for an additional 10 min at 37°C. Recombinant 5-LO activity assays were carried out using 3 µg r5LO-wt enzyme. The enzyme was diluted in PBS/EDTA/ATP, transferred into 5-ml glass tubes, and stored on ice. […] The samples were then pre-heated at 37°C in a water bath and subsequently stimulated with 1 mM CaCl2 and 20 µM AA for 10 min at 37°C. The reaction was stopped by placing the glass tubes on ice. The supernatants were transferred to 1.5 ml reaction tubes and stored at −80°C before LC-MS (liquid chromatography and mass spectrometry) analysis of LTB4 and HETEs as described in 2.6 at the Institute of Pharmacology, Goethe University, University Hospital, Germany.
The lipid mediators LTB4, hydroxyeicosatetraenoic acids, 5(S)-HETE, 12(S)-HETE, 15(S)-HETE and 20-HETE were analyzed using liquid chromatography tandem-mass spectroscopy (LC-MS/MS). The LC-MS/MS system consisted of a 5500 QTrap mass spectrometer (Sciex, Darmstadt, Germany), operating in negative ESI mode, an Agilent 1200 HPLC system (Agilent, Waldbronn, Germany) and an HTC Pal autosampler (Chromtech, Idstein, Germany).
Suppl. Figure 3: Inhibition of 5-LO derived 5-HETE production by NFA with (A) different carbon chain lengths and (B) different Michael acceptor positions using the r5LO-wt assay. r5LO-wt (3 µg) in PBS/EDTA/ATP buffer was preincubated with the compounds or the vehicle control DMSO (0.1%) for 15 min at 4°C, preheated at 37°C for 30 sec, and subsequently stimulated with 1 mM CaCl 2 and 20 µM AA for another 10 min at 37°C.
5-HETE activity was analyzed by LC-MS. Data are presented as the percent of the control mean ± SD, n = 3–6. AA , arachidonic acid; ATP, adenosine triphosphate; DMSO, dimethyl sulfoxide; EDTA, ethylenediaminetetraacetate; HETE, hydroxyeicosatetraenoic acid; NFA, nitro-fatty acids; PBS, phosphate-buffered saline . […]

The mark [3] stands for this setting: WST-1 cell viability, 24 h, n.i. = no inhibition observed.
Setting [4] is: 3 µg r5LO-wt, 15 min on ice, 1 mM CaCl2 + 20 µM AA, n.i. = no inhibition observed.

Regarding `CCC=C(CCCCCCCC(=O)O)[N+](=O)[O-]` [12.9.9, 9-nitro-dodec-9-enoic acid], the IC50 in data set [1] (setting [3]) is 23.1 ± 1.1 µM; in data set [2] (setting [4]), 75.5 ± 8.1 µM.

For `CCCCC=C(CCCCCCCC(=O)O)[N+](=O)[O-]` [14.9.9, 9-nitro-tetradec-9-enoic acid], the IC50 was 16.8 ± 1.1 µM in data set [1] (setting [3]) and 17.9 ± 1.6 µM in data set [2] (setting [4]).

For `CCCCCCC=C(CCCCCCCC(=O)O)[N+](=O)[O-]` [16.9.9, 9-nitro-hexadec-9-enoic acid], the IC50 stood at 10.5 ± 1.1 µM in data set [1] (setting [3]) and 3.3 ± 1.2 µM in data set [2] (setting [4]).

Turning to `CCCCCCCCCCCCCC=C(CCC(=O)O)[N+](=O)[O-]` [18.4.4, 4-nitro-octadec-4-enoic acid], the IC50 in data set [1] (setting [3]) came to 18.6 ± 1.1 µM; in data set [2] (setting [4]), 0.4 ± 1.2 µM.

For the compound `CCCCCCCCCCCCC=C(CCCC(=O)O)[N+](=O)[O-]` [18.5.5, 5-nitro-octadec-5-enoic acid], the values for the IC50 in data set [1] (setting [3]) and in data set [2] (setting [4]) were 11.6 ± 1.1 µM and 0.4 ± 1.1 µM, respectively.

For `CCCCCCCCCCCC=C(CCCCC(=O)O)[N+](=O)[O-]` [18.6.6, 6-nitro-octadec-6-enoic acid], the IC50 in data set [1] (setting [3]) is 7.6 ± 1.1 µM; in data set [2] (setting [4]) it was 1 ± 1.2 µM.

For the compound `CCCCCCCCCCCC(=CCCCCC(=O)O)[N+](=O)[O-]` [18.6.7, 7-nitro-octadec-6-enoic acid], the IC50 in data set [1] (setting [3]) was 8.1 ± 1.1 µM; in data set [2] (setting [4]) it was 1.1 ± 1.2 µM.

For `CCCCCCCCCCC=C(CCCCCC(=O)O)[N+](=O)[O-]` [18.7.7, 7-nitro-octadec-7-enoic acid], the “cytotoxic potency higher compared to 9NOA” value in data set [1] is > 2 fold. For the same compound, the IC50 was found to be 2.7 ± 1.1 µM in data set [1] (setting [3]) and 0.6 ± 1.3 µM in data set [2] (setting [4]).

`CCCCCCCCCC=C(CCCCCCC(=O)O)[N+](=O)[O-]` [18.8.8, 8-nitro-octadec-8-enoic acid]: the “cytotoxic potency higher compared to 9NOA” value in data set [1] was > 2 fold. Further, the IC50 worked out at 2.1 ± 1.1 µM in data set [1] (setting [3]) and 2.2 ± 1.2 µM in data set [2] (setting [4]).

For `CCCCCCCCCC(=CCCCCCCC(=O)O)[N+](=O)[O-]` [18.8.9, 9-nitro-octadec-8-enoic acid], the half-inhibitory concentration (IC50) in data set [1] (setting [3]) amounted to 4.6 ± 1.1 µM; in data set [2] (setting [4]), 1.9 ± 1.2 µM.

Take `CCCCCCCCC=C(CCCCCCCC(=O)O)[N+](=O)[O-]` [18.9.9, 9-nitro-octadec-9-enoic acid]: the figures for the IC50 in data set [1] (setting [3]) and in data set [2] (setting [4]) were 6.4 ± 1.2 µM and 1.1 ± 1.2 µM, respectively.

In the case of `CCCCCCCCC(=CCCCCCCCC(=O)O)[N+](=O)[O-]` [18.9.10, 10-nitro-octadec-9-enoic acid], the IC50 in data set [1] (setting [3]) worked out at 13.5 ± 1.1 µM; in data set [2] (setting [4]), 1.6 ± 1.3 µM.

`CCCCCCCC=C(CCCCCCCCC(=O)O)[N+](=O)[O-]` [18.10.10, 10-nitro-octadec-10-enoic acid]: the figures for the IC50 in data set [1] (setting [3]) and in data set [2] (setting [4]) were 13.6 ± 1.1 µM and 1.6 ± 1.3 µM, respectively.

For `CCCCCCC=C(CCCCCCCCCC(=O)O)[N+](=O)[O-]` [18.11.11, 11-nitro-octadec-11-enoic acid], the IC50 is 16 ± 1.1 µM in data set [1] (setting [3]) and 0.8 ± 1.2 µM in data set [2] (setting [4]).

Consider `CCCCCCCCCCC=C(CCCCCCCC(=O)O)[N+](=O)[O-]` [20.9.9, 9-nitro-eicos-9-enoic acid], for which the half-inhibitory concentration (IC50) amounted to 5.4 ± 1.1 µM in data set [1] (setting [3]) and 0.9 ± 1.3 µM in data set [2] (setting [4]).

On to `CCCCCCCC/C=C\CCCCCCCC(=O)O` [OA, oleic acid, reference compound], for which the “HCT-116 (24 h) IC50” value in data set [1] (setting [3]) is “failed to induce cytotoxic effects and n.i”. In addition, in data set [2] (setting [4]), the “r5LO-wt 5-HETE IC50” value is on record as “n.i”. In data set [2] (at concentrations of >10 µM), the “effect on product formation by recombinant 5-LO” value is “slight inhibitory effect”.
